Among the data in the Kinase Knowledgebase extract (Sharma et al. 2016) are IC50 values, retold here.

The target of one assay is PIK3CG (human) (UniProt P48736). Nature of the assay: Assessment of PIK3CG Kinase Activity.
For another assay, the target named is PIK3CA (human) (UniProt P42336). As to the kind of experiment: Assessment of PIK3CA Kinase Activity.
In the next assay the target is PIK3CB (Human) (UniProt P42338). As to the kind of experiment: Assessment of PIK3CB Kinase Activity.
The next assay deals with PIK3CD (Human) (UniProt O00329). As to the kind of experiment: Assessment of PIK3CD Kinase Activity.
Sequence of PIK3CD (Human) (O00329 whole entry, looked up): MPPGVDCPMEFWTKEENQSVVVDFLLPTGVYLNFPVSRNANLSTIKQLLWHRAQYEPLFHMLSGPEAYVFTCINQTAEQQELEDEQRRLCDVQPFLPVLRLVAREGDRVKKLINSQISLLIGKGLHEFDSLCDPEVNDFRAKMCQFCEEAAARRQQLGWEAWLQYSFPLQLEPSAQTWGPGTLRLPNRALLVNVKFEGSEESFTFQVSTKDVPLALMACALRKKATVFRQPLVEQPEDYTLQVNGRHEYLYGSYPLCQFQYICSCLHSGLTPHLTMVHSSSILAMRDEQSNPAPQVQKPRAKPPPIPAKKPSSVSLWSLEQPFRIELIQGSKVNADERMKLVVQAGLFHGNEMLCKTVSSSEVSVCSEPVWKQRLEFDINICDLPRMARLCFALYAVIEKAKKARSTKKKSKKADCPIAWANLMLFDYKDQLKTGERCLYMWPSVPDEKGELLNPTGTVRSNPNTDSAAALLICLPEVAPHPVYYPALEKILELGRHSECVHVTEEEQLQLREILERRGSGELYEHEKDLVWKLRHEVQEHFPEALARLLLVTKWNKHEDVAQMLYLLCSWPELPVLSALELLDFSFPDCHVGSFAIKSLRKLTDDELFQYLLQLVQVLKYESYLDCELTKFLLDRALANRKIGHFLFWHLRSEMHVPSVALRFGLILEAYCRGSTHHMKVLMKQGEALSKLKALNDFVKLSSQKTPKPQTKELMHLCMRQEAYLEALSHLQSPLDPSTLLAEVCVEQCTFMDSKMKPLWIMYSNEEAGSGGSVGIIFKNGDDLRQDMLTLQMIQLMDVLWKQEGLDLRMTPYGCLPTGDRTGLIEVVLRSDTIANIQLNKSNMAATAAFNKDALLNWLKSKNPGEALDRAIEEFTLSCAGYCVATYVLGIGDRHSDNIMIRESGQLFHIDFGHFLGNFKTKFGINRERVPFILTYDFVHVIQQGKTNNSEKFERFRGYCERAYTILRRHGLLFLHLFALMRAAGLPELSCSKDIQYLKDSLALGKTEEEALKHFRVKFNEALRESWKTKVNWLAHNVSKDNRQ

Sequence of PIK3CA (human) (P42336 whole entry, looked up): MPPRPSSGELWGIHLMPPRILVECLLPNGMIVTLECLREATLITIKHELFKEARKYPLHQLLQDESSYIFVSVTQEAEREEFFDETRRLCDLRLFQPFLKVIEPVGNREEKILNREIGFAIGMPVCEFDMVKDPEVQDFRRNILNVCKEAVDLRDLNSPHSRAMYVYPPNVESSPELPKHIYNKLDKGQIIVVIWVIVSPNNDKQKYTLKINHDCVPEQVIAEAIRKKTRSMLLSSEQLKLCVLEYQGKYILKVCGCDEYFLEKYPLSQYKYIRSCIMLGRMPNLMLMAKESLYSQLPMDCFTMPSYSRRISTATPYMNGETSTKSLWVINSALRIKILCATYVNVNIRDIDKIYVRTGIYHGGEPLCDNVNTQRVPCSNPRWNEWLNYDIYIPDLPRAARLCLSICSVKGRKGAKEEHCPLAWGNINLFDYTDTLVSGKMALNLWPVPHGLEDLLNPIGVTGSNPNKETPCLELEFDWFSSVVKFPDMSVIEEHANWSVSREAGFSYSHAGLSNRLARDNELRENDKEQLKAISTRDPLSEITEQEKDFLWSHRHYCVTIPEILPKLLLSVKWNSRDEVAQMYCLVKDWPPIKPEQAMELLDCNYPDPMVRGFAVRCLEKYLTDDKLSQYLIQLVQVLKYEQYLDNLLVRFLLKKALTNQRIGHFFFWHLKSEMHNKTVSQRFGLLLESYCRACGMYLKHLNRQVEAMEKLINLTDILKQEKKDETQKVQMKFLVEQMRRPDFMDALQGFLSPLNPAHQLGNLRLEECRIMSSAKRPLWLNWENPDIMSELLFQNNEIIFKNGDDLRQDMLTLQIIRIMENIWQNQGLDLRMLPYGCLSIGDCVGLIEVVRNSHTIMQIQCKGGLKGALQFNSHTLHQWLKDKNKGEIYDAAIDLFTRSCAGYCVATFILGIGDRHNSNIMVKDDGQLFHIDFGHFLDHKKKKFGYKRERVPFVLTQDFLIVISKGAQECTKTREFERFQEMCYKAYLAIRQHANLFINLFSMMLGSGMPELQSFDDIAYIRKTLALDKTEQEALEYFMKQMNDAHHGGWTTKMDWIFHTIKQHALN
Sequence of PIK3CB (Human) (P42338 whole entry, looked up): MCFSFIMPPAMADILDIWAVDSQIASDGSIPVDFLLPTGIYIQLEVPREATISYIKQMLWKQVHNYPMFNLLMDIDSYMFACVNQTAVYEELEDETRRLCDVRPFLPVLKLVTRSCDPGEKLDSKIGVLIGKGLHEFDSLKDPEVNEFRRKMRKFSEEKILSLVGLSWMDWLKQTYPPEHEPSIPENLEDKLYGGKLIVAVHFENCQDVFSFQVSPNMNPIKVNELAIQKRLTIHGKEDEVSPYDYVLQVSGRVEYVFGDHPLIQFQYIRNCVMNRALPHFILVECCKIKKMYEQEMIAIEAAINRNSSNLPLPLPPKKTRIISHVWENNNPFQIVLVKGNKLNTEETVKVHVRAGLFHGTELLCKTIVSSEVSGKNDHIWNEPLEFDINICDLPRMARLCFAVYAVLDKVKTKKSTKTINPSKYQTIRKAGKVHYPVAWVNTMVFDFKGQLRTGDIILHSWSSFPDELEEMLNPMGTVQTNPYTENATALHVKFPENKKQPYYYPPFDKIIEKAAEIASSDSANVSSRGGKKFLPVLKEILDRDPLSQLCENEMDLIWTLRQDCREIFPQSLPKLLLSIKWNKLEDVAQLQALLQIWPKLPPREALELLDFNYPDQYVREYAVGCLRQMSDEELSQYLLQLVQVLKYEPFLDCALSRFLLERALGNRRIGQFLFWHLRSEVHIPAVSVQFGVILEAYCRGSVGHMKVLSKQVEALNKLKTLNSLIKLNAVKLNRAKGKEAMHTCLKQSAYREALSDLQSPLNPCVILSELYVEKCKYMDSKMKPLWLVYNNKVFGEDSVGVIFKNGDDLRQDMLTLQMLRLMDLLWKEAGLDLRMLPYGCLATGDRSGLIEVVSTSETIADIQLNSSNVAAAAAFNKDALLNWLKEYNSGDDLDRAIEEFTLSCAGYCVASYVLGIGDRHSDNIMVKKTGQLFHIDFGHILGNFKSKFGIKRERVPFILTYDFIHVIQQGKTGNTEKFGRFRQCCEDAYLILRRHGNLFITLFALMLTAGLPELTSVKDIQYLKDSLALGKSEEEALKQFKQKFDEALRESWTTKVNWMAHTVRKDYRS
Sequence of PIK3CG (human) (P48736 whole entry, looked up): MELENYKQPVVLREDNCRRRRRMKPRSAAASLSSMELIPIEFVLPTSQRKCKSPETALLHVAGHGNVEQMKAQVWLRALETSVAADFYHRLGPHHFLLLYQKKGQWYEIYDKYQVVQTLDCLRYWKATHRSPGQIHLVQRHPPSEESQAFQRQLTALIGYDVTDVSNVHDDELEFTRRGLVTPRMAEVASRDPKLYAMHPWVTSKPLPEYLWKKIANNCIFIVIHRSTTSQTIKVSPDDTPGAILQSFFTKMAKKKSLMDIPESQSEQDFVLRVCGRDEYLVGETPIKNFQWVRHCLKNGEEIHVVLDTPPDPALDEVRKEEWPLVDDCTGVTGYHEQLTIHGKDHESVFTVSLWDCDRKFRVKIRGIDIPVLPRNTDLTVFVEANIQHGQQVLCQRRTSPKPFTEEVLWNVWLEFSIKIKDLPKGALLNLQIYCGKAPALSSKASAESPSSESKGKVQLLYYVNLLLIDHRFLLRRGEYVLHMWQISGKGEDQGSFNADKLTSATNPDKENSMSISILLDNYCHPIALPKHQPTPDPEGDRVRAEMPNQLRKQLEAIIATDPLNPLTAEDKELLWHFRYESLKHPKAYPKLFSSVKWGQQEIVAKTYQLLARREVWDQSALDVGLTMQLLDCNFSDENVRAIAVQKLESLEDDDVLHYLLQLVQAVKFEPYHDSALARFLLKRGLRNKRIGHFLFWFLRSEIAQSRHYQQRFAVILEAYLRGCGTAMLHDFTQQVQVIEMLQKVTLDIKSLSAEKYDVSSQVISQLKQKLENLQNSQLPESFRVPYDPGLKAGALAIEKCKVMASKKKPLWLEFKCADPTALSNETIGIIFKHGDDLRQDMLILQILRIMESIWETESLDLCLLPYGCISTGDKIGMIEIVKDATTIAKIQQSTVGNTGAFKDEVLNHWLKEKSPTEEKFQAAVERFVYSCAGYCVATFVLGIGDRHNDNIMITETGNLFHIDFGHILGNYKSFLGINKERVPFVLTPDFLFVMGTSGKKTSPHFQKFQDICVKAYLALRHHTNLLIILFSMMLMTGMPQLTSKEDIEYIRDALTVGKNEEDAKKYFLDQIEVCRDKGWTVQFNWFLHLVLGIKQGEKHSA

By IC50 is commonly meant the concentration needed to halve the response being measured. Low readings indicate greater potency in that assay, high ones weaker potency in that assay. In the case of `C[C@H](Nc1ccnn2ccnc12)c1cc2cccc(Cl)c2c(=O)n1CCN1CCCC1`, the 50% inhibitory concentration (IC50) against PIK3CG (human) and on PIK3CA (human) was over 10000 nM throughout.
For `Cc1cn2nccc(N[C@@H](C)c3cc4cccc(Cl)c4c(=O)n3-c3cccc(F)c3)c2n1`, the concentration for half-maximal inhibition (IC50) at PIK3CA (human) and against PIK3CB (Human) was over 10000 nM each time.
With `Cc1cc(-c2cccc3cc([C@H](C)Nc4nc(N)nc5cccnc45)n(-c4ccccc4)c(=O)c23)ccn1`, the results for the concentration for half-maximal inhibition (IC50) at PIK3CD (Human), against PIK3CG (human) and against PIK3CA (human) were under 100 nM, under 100 nM and 100 to 1000 nM, respectively.
Consider `C[C@H](Nc1ncnc2[nH]nc(C#N)c12)c1cc2cccc(Cl)c2c(=O)n1-c1ccccc1`, for which the 50% inhibitory concentration (IC50) is under 100 nM on PIK3CD (Human), under 100 nM against PIK3CG (human) and over 10000 nM at PIK3CA (human).
Take `Cc1nc2c(N[C@@H](C)c3cc4cccc(C(F)(F)F)c4c(=O)n3-c3ccccc3)ncnc2s1`: the IC50 against PIK3CD (Human), at PIK3CA (human) and against PIK3CB (Human) was over 10000 nM throughout.
Take `Cc1cc(-c2cccc3cc([C@H](C)Nc4ncnc5cccnc45)n(-c4ccccc4)c(=O)c23)ccn1`: the values for the IC50 at PIK3CD (Human), at PIK3CG (human) and on PIK3CA (human) were under 100 nM, under 100 nM and 100 to 1000 nM, respectively.
For `C[C@H](Nc1cc(O)nc2cccnc12)c1cc2cccc(Cl)c2c(=O)n1-c1ccccc1`, the IC50 on PIK3CA (human) and against PIK3CB (Human) was over 10000 nM throughout.
For the compound `C[C@H](Nc1nc(Cl)nc2scnc12)c1cc2cccc(C(F)(F)F)c2c(=O)n1-c1ccccc1`, the IC50 on PIK3CD (Human) was under 100 nM; against PIK3CG (human) it was under 100 nM; against PIK3CA (human), over 10000 nM.
Regarding `C[C@H](Nc1ncnc2[nH]cnc12)c1cc2scc(C(F)(F)F)c2c(=O)n1-c1ccccc1`, the IC50 against PIK3CD (Human), at PIK3CA (human) and against PIK3CB (Human) was 100 to 1000 nM in each case.
For `C[C@H](Nc1ncnc2ccnn12)C1=Cc2cccc(Cl)c2C(C(=O)N2CCOCC2)N1` (some centres undefined), the IC50 was 100 to 1000 nM against PIK3CD (Human) and over 10000 nM against PIK3CA (human).
On to `Cc1cn2nccc(N[C@@H](C)c3cc4cccc(Cl)c4c(=O)n3-c3ccccc3)c2n1`, for which the 50% inhibitory concentration (IC50) against PIK3CA (human) and at PIK3CB (Human) was over 10000 nM throughout.
Consider `C[C@H](Nc1c(C#N)cnc2cccnc12)c1cc2cccc(C(F)(F)F)c2c(=O)n1-c1ccccc1`, for which the IC50 on PIK3CD (Human), against PIK3CA (human) and against PIK3CB (Human) was over 10000 nM throughout.
As to `C[C@H](Nc1ccnc2cccnc12)c1cc2cccc(C(F)(F)F)c2c(=O)n1-c1ccccc1`, the 50% inhibitory concentration (IC50) against PIK3CD (Human) was under 100 nM; on PIK3CG (human), under 100 nM; on PIK3CA (human), over 10000 nM.
`C[C@H](Nc1c(C#N)cnc2cccnc12)c1cc2cccc(Cl)c2c(=O)n1-c1cccc(F)c1`: the IC50 against PIK3CD (Human), against PIK3CA (human) and against PIK3CB (Human) was over 10000 nM each time.
Consider `C[C@H](Nc1nc(N)nc2nccnc12)c1cc2cccc(Cl)c2c(=O)n1-c1ccccc1`, for which the IC50 at PIK3CD (Human) is 100 to 1000 nM; against PIK3CG (human) it was under 100 nM; against PIK3CA (human), over 10000 nM.
On to `C[C@H](Nc1cc(Cl)nn2ccnc12)c1cc2cccc(C(F)(F)F)c2c(=O)n1-c1cccc(F)c1`, for which the figures for the IC50 at PIK3CD (Human), at PIK3CA (human) and on PIK3CB (Human) were 100 to 1000 nM, over 10000 nM and over 10000 nM, respectively.
In the case of `Cc1cncc(-c2cccc3cc([C@H](C)Nc4nc(N)nc5cccnc45)n(-c4ccccc4)c(=O)c23)c1`, the half-maximal inhibitory concentration (IC50) at PIK3CD (Human) is under 100 nM; against PIK3CG (human), under 100 nM; against PIK3CA (human), 100 to 1000 nM.
On to `C[C@H](Nc1ncnc2ccnn12)c1cc2cccc(C(F)(F)F)c2c(=O)n1-c1ccccc1`, for which the values for the IC50 on PIK3CD (Human), against PIK3CG (human) and against PIK3CA (human) were under 100 nM, under 100 nM and over 10000 nM, respectively.
As for `C[C@H](Nc1ncnc(N)n1)c1cc2cccc(Cl)c2c(=O)n1-c1cccc(F)c1`, the results for the 50% inhibitory concentration (IC50) on PIK3CD (Human), on PIK3CA (human) and against PIK3CB (Human) were 100 to 1000 nM, over 10000 nM and over 10000 nM, respectively.
For `C[C@H](Nc1nc(N)nc2cccnc12)c1cc2cccc(-c3cnc4ccccc4c3)c2c(=O)n1-c1ccccc1`, the IC50 was under 100 nM against PIK3CD (Human), under 100 nM against PIK3CG (human) and 100 to 1000 nM at PIK3CA (human).
On to `C[C@H](Nc1ncnc2cccnc12)c1cc2cccc(-c3cnc(N)nc3)c2c(=O)n1-c1ccccc1`, for which the values for the IC50 on PIK3CD (Human), at PIK3CG (human) and on PIK3CA (human) were under 100 nM, under 100 nM and 100 to 1000 nM, respectively.
As for `Cc1cn2nccc(N[C@@H](C)c3cc4cccc(C(F)(F)F)c4c(=O)n3-c3ccccc3)c2n1`, the IC50 on PIK3CD (Human), on PIK3CA (human) and against PIK3CB (Human) was over 10000 nM throughout.
As for `C[C@H](Nc1nc(Cl)nc2nccnc12)c1cc2cccc(Cl)c2c(=O)n1-c1ccccc1`, the 50% inhibitory concentration (IC50) on PIK3CA (human) and at PIK3CB (Human) was over 10000 nM each time.
With `Cc1nsc2cc(C(C)Nc3ncnc4cccnc34)n(-c3ccccc3)c(=O)c12` (centres undefined), the IC50 is 100 to 1000 nM against PIK3CD (Human), over 10000 nM against PIK3CA (human) and over 10000 nM against PIK3CB (Human).
Regarding `COc1ccc(CNc2nc(N[C@@H](C)c3cc4cccc(-c5cnc(OC)nc5)c4c(=O)n3-c3ccccc3)c3ncccc3n2)cc1`, the IC50 against PIK3CD (Human) was 100 to 1000 nM; at PIK3CG (human) it was 100 to 1000 nM; against PIK3CA (human) it was over 10000 nM.
